In patent US20260284009A1, “COMPOUNDS FOR NOS-RELATED CANCERS AND METHODS OF USE” (YISSUM RESEARCH DEVELOPMENT COMPANY OF THE HEBREW …, priority 2023, published 2026):

What was measured:
Type in all cases: cell-based, human
[1] = tested on: iNOS; assay: iNOS expression level in U87-MG cells; conditions: compared to the control treatment, not statistically significant (FIG. 14)
[2] = tested on: nNOS; assay: nNOS expression level in U87-MG cells; conditions: both the lower dose and higher dose, compared to the control treatment; not statistically significant (FIG. 15)
[3] = tested on: SH-SY5Y cells; assay: NADPH-diaphorase activity in cell lysates of SH-SY5Y cells; conditions: 100 μM 7-NI or 20 nM siRNA (SEQ ID NO: 4), absorbance at 585 nm normalized for total protein, n=3
Experimental: In FIGS. 2A-2C, for quantitative analysis absorbance at 585 nm was normalized for total protein. Data are expressed as the mean±SEM. Statistical significance was determined using a One-way ANOVA followed by Fisher's LSD multiple comparison post hoc test. *P<0.05 and **P<0.01.
FIG. 2A: Quantitative analysis of NADPH-diaphorase activity in cell lysates of SH-SY5Y cells following the administration of the control (“SH-SY5Y”) (n=3), 0.1% DMSO (“SH-SY5Y+NC”) (n=3), 100 μM 7-NI (“SH-SY5Y+7-NI”) (n=3), or 20 nM siRNA (SEQ ID NO: 4) (“SH-SY5Y+si-nNOS”) (n=3).
FIG. 2C: Representative images of cultured SH-SY5Y cells stained for NADPH-diaphorase activity.

[4] = tested on: SH-SY5Y cells; assay: Immunofluorescent staining of Syp and 3-Ntyr in SH-SY5Y cells; conditions: immunofluorescence, 100 μM 7-NI or 20 nM siRNA
Experimental: In FIGS. 5A-5C, for quantitative analysis each group consisted of three independent sets of experiments run in triplicate. Data are presented as mean±SEM. Statistical significance was determined using a One-way ANOVA followed by Fisher's LSD multiple comparison post hoc test. **P<0.01 and ***P<0.001.
FIG. 5A: Representative immunofluorescent images of SH-SY5Y cells stained for Syp and 3-Ntyr following administration of the control (“SH-SY5Y”), 100 μM 7-NI (“SH-SY5Y+7-NI”), or 20 nM siRNA (SEQ ID NO: 4) (“SH-SY5Y+si-nNOS”). The scale bar is 10 μm.
FIG. 5B: Quantitative analysis of fluorescent intensity of Syp for the experiments of FIG. 5A.
FIG. 5C: Quantitative analysis of fluorescent intensity of 3-Ntyr for the experiments of FIG. 5A.

[5] = tested on: SH-SY5Y cells; assay: Confocal immunofluorescence of SH-SY5Y cells (3-Ntyr, Syp); conditions: 7-NI
Experimental: Human neuroblastoma (“NB”) SH-SY5Y cells were obtained from the American Type Culture Collection (ATCC) and maintained in Dulbecco's modified Eagle's medium (DMEM) and Ham's F-12 (1:1) supplemented with 10% fetal bovine serum, 2 mM L-glutamine, and 100 U/ml penicillin-G/[…] streptomycin in the humidified atmosphere (37° C., 5% CO2). Cells were plated onto 25 cm^2 and 75 cm^2 at a density of […] respectively for Western blotting (WB) and 1×10^5 for immunofluorescence. The SH-SY5Y cells were treated with 100 μM 7-nitroindazole (7-NI) for 24 hr. This concentration was confirmed in the dose-response experiment (FIG. 1) using an MTT viability assay.
Cells cultured on coverslips coated with Poly-D-Lysine were washed three times with PBS and fixed in 4% paraformaldehyde for 15-20 min at room temperature. The fixed cells were washed three times with PBS and incubated in the presence of permeabilization buffer (PBS containing 0.1% Triton X-100) for 5 min at room temperature. […]

Compound | expression level of iNOS ([1]; higher dose) | expression level of iNOS ([1]; lower dose) | expression level of nNOS [2] | NADPH-diaphorase activity [3] | 3-Ntyr expression levels (fluorescent intensity) [4] | Syp expression levels (fluorescent intensity) [4] | fluorescence intensity of 3-Ntyr [5] | fluorescence intensity of Syp [5]
CC(=N)NCCCC[C@H](N)C(=O)O [L-NIL, N^6-(1-iminoethyl)-L-lysine] | unchanged | slightly elevated | reduced | – | – | – | – | –
O=[N+]([O-])c1cccc2cn[nH]c12 [7-NI, 7-nitroindazole] | – | – | – | significant decrease | significant decrease | significant decrease | significantly decreased | significantly decreased
